Article PMC9607081 (Membranes, 2022)
Residue numbers refer to the chain shown, from its start. Like-named read-outs stand apart in the source and are kept apart here.

Assays:
[1] = tested on: human GlyR α1 subunit P30 (α1β1L) substituted with TFP
Method: (§1) The cDNA for the human GlyR α1 subunit was in pGEMHE (ThermoFischer Scientific, Bishops Stortford, UK). Site-directed mutagenesis was performed using QuikChange (Agilent Technologies, Milton Keynes, UK) to generate the appropriate codon. For non-canonical amino acid mutants and conventional mutants generated by nonsense suppression, the site of interest was mutated to the TAG stop codon. Receptor mRNA was then prepared by in vitro runoff transcription using the Ambion T7 mMessage mMachine kit (ThermoFischer Scientific, Bishops Stortford, UK). Noncanonical amino acids were ligated to tRNA as previously described.
(§2) Stage V-VI oocytes of Xenopus laevis were harvested and injected with RNAs as described previously. For nonsense suppression experiments, each cell was injected with 50–100 ng each of receptor mRNA and tRNA charged with the appropriate Pro analogue ~48 h before recording. For wild type and conventional mutants, each cell received a single injection of 10–25 ng of receptor mRNA ~24 h before recording. Injection volumes were 50–100 nL per cell.
(§3) As a negative control for suppression experiments at each site, unligated tRNA was co-injected with mRNA in the same manner as charged tRNA. […] Pro recovery (injecting tRNA charged with Pro to regenerate a wild type channel via nonsense suppression) was used alongside Pro analogues as a positive control.
(§4) Two-electrode voltage clamping of Xenopus oocytes was performed using standard electrophysiological procedures as previously, using an OpusXpress system (Axon Instruments, Inc., Union City, CA, USA). All experiments were performed at 22–25 °C. […] The holding potential was −60 mV unless otherwise specified. […] Data were analysed using Prism (GraphPad Software Inc., San Diego, CA, USA), fitting concentration-response data to the four-parameter logistic equation. Statistical analysis was performed using ANOVA with a Dunnett’s multiple comparisons post test.

[2] = tested on: human GlyR α1 subunit P30 (α1β1L) substituted with Vah
Method: as §1, §2, §3, §4

[3] = tested on: human GlyR α1 subunit P230 (M1) substituted with 3MeP; conditions: Table 2, P230 3MeP, n = 4
Method: as §1, §2, §3, §4

[4] = tested on: human GlyR α1 subunit P230 (M1) substituted with CFP
Method: as §1, §2, §3, §4

[5] = tested on: human GlyR α1 subunit P96 (loopA) substituted with Pip
Method: as §1, §2, §3, §4

[6] = tested on: human GlyR α1 subunit P146 (CysL) substituted with TFP
Method: as §1, §2, §3, §4

human GlyR α1 subunit WT = target: T1, human GlyR α1 subunit WT (Homo sapiens, UniProt P23415); test: Two-electrode voltage clamp of Xenopus oocytes expressing WT GlyR; format: cell-based; conditions: for nH (Hill coefficient): Table 1, n = 5; for EC50: Table 1, −60 mV; for % ImaxTau /ImaxGly: Tau maximal current relative to Gly maximal current
T1 construct: expressed in transfected cells; host or cells: Xenopus laevis oocytes injected with receptor mRNA
T1 sequence (P23415 29-457): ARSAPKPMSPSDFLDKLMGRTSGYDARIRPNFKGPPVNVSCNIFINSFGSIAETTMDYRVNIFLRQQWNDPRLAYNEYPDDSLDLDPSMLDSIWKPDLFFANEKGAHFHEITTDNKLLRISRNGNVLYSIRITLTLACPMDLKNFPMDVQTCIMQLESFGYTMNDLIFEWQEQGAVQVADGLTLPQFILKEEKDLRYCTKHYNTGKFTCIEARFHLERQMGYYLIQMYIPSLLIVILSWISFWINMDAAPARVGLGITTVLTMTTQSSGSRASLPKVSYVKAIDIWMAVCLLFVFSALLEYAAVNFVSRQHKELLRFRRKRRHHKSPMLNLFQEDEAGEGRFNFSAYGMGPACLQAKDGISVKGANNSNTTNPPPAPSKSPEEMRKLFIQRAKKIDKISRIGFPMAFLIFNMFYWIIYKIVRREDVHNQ
Method: (§5) Injection volumes were 50–100 nL per cell.
(§6) All experiments were performed at 22–25 °C. […] The holding potential was −60 mV unless otherwise specified.

[7] = target: T2, human GlyR α1 subunit P230A (Homo sapiens, UniProt P23415, P258A); test: Two-electrode voltage clamp of Xenopus oocytes expressing P230A GlyR; format: cell-based; conditions: for nH (Hill coefficient): Table 1, n = 5; for EC50: Table 1, −60 mV
T2 construct: expressed in transfected cells; host or cells: Xenopus laevis oocytes injected with receptor mRNA
T2 sequence (P23415 29-457 P258A): T1 sequence (P23415 29-457) with P230A
Method: as §5, §6

[8] = target: T3, human GlyR α1 subunit P146A (Homo sapiens, UniProt P23415, P174A); test: Two-electrode voltage clamp of Xenopus oocytes expressing P146A GlyR; format: cell-based; conditions: for nH (Hill coefficient): Table 1, n = 5; for EC50: Table 1, −60 mV
T3 construct: expressed in transfected cells; host or cells: Xenopus laevis oocytes injected with receptor mRNA
T3 sequence (P23415 29-457 P174A): T1 sequence (P23415 29-457) with P146A
Method: as §5, §6

[9] = target: T4, human GlyR α1 subunit P30A (Homo sapiens, UniProt P23415, P58A); test: Two-electrode voltage clamp of Xenopus oocytes expressing P30A GlyR; format: cell-based; conditions: n = 5
T4 construct: expressed in transfected cells; host or cells: Xenopus laevis oocytes injected with receptor mRNA
Method: as §5, §6

[10] = Table 2, nonsense suppression, n = 5
[11] = Table 2, nonsense suppression, n = 4
[12] = n = 5, read-out: pEC50 (converted)

T4 sequence (P23415 29-457 P58A): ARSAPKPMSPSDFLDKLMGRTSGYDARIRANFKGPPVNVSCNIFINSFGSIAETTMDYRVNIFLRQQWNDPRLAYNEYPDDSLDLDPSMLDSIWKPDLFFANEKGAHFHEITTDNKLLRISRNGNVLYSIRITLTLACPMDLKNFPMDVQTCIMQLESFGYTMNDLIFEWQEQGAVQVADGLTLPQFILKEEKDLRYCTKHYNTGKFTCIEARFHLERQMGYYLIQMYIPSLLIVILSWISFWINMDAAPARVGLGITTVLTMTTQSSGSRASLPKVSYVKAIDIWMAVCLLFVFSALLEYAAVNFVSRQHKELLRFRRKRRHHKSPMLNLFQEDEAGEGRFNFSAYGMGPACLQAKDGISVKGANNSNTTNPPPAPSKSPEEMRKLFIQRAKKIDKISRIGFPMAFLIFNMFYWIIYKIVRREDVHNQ

## NCC(=O)O [Gly, glycine]
[1]; Table 2, n = 5
  nH: 2.7 ± 1.3
[1]; [10]
  EC50: 97 µM
  pEC50: 4.013 ± 0.05 M
[2]; Table 2, n = 4
  nH: 3.8 ± 0.5
[2]; [11]
  EC50: 21 µM
  pEC50: 4.684 ± 0.03 M
[3]
  nH: 1.1 ± 0.4
[3]; nonsense suppression
  EC50: 34 µM
  pEC50: 4.471 ± 0.08 M
[4]; Table 2, n = 4
  nH: 1.4 ± 0.2
[4]; [11]
  EC50: 74 µM
  pEC50: 4.131 ± 0.04 M
[5]; Table 2, n = 4
  nH: 2.9 ± 0.3
[5]; [11]
  EC50: 215 µM
  pEC50: 3.667 ± 0.02 M
[6]; Table 2, n = 5
  nH: 2.3 ± 0.4
[6]; [10]
  EC50: 156 µM
  pEC50: 3.806 ± 0.05 M
Human GlyR α1 subunit WT
  nH (Hill coefficient): 2.3 ± 0.5
[7]
  nH (Hill coefficient): 2.2 ± 0.4
[8]
  nH (Hill coefficient): 2.4 ± 0.7

## NCCS(=O)(=O)O [Tau, taurine]
[9]
  EC50: 1230 µM
  ImaxTau/ImaxGly: 60 ± 5%
Human GlyR α1 subunit WT
  nH (Hill coefficient): 1.7 ± 0.3
Human GlyR α1 subunit WT; n = 5, read-out: EC50
  EC50: 583 µM
Human GlyR α1 subunit WT; [12]
  EC50: 582 µM
Human GlyR α1 subunit WT; n = 5
  % ImaxTau /ImaxGly: 50 ± 4%
Human GlyR α1 subunit WT; n = 5, listed as Taurine
  % ImaxTau /ImaxGly: 50%
[7]
  nH (Hill coefficient): 2.2 ± 0.4
[7]; n = 5, read-out: EC50
  EC50: 1190 µM
[7]; [12]
  EC50: 1190 µM
[7]; n = 5
  % ImaxTau /ImaxGly: 20 ± 1 %
[8]
  nH (Hill coefficient): 1.5 ± 0.3
[8]; n = 5, read-out: EC50
  EC50: 1410 µM
[8]; [12]
  EC50: 1410 µM
[8]; n = 5
  % ImaxTau /ImaxGly: 39 ± 3 %
